Reference: ChEMBL document CHEMBL1201862, “PubChem BioAssay data set” (2004)
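48-hour exposure; five concentrations; linearly interpolated endpoints. The concentration for 50% growth inhibition is given as GI50.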 Active and inactive are the calls of the source. No stated cut-off is given here; in the data, active = GI50 up to about 1.1 µM and inactive = higher.

Tests used:
Test in all cases: NCI-60 cell line screen, 48 h
786-0 = test system: 786-0
A498 = test system: A498
A549 = test system: A549
ACHN = test system: ACHN
BT-549 = test system: BT-549
CAKI-1 = test system: CAKI-1
CCRF-CEM = test system: CCRF-CEM
COLO 205 = test system: COLO 205
DU-145 = test system: DU-145
EKVX = test system: EKVX
HCC 2998 = test system: HCC 2998
HCT-116 = test system: HCT-116
HCT-15 = test system: HCT-15
HL-60 = test system: HL-60
HOP-62 = test system: HOP-62
HOP-92 = test system: HOP-92
HT-29 = test system: HT-29
Hs-578T = test system: Hs-578T
IGROV-1 = test system: IGROV-1
K562 = test system: K562
KM12 = test system: KM12
LOX IMVI = test system: LOX IMVI
M14 = test system: M14
MCF7 = test system: MCF7
MDA-MB-231 = test system: MDA-MB-231
MDA-MB-435 = test system: MDA-MB-435
MDA-N = test system: MDA-N
MOLT-4 = test system: MOLT-4
Malme-3M = test system: Malme-3M
NCI-H226 = test system: NCI-H226
NCI-H23 = test system: NCI-H23
NCI-H460 = test system: NCI-H460
NCI-H522 = test system: NCI-H522
NCI/ADR-RES = test system: NCI/ADR-RES
OVCAR-3 = test system: OVCAR-3
OVCAR-4 = test system: OVCAR-4
OVCAR-5 = test system: OVCAR-5
OVCAR-8 = test system: OVCAR-8
PC-3 = test system: PC-3
RPMI-8226 = test system: RPMI-8226
RXF 393 = test system: RXF 393
SF-268 = test system: SF-268
SF-295 = test system: SF-295
SF-539 = test system: SF-539
SK-MEL-28 = test system: SK-MEL-28
SK-MEL-2 = test system: SK-MEL-2
SK-MEL-5 = test system: SK-MEL-5
SK-OV-3 = test system: SK-OV-3
SN12C = test system: SN12C
SNB-19 = test system: SNB-19
SR = test system: SR
SW-620 = test system: SW-620
T47D = test system: T47D
TK-10 = test system: TK-10
U-251 = test system: U-251
UACC-257 = test system: UACC-257
UACC-62 = test system: UACC-62
UO-31 = test system: UO-31
SNB-75 = test system: SNB-75

Structure (SMILES): CCCCC[C@H]1CC=CC(=O)O1
- GI50 (786-0): 3.1 µM (inactive)
- GI50 (A498): 1.82 µM (inactive)
- GI50 (A549): 5.86 µM (inactive)
- GI50 (ACHN): 7.13 µM (inactive)
- GI50 (BT-549): 4.06 µM (inactive)
- GI50 (CAKI-1): 2.55 µM (inactive)
- GI50 (CCRF-CEM): 4.74 µM (inactive)
- GI50 (COLO 205): 3.53 µM (inactive)
- GI50 (DU-145): 5.83 µM (inactive)
- GI50 (EKVX): 17.1 µM (inactive)
- GI50 (HCC 2998): 4.25 µM (inactive)
- GI50 (HCT-116): 3.16 µM (inactive)
- GI50 (HCT-15): 4.2 µM
- GI50 (HL-60): 2.88 µM (inactive)
- GI50 (HOP-62): 17.3 µM (inactive)
- GI50 (HOP-92): 10.4 µM (inactive)
- GI50 (HT-29): 4.03 µM (inactive)
- GI50 (Hs-578T): 7.71 µM (inactive)
- GI50 (IGROV-1): 5.27 µM (inactive)
- GI50 (K562): 5.48 µM (inactive)
- GI50 (KM12): 3.18 µM (inactive)
- GI50 (LOX IMVI): 4.65 µM (inactive)
- GI50 (M14): 11.5 µM (inactive)
- GI50 (MCF7): 4.89 µM (inactive)
- GI50 (MDA-MB-231): 10 µM (inactive)
- GI50 (MDA-MB-435): 7.33 µM (inactive)
- GI50 (MDA-N): 5.02 µM (inactive)
- GI50 (MOLT-4): 2.34 µM (inactive)
- GI50 (Malme-3M): 15.5 µM (inactive)
- GI50 (NCI-H226): 4.13 µM (inactive)
- GI50 (NCI-H23): 17.9 µM (inactive)
- GI50 (NCI-H460): 5.35 µM (inactive)
- GI50 (NCI-H522): 2.78 µM (inactive)
- GI50 (NCI/ADR-RES): 5.92 µM (inactive)
- GI50 (OVCAR-3): 3.5 µM (inactive)
- GI50 (OVCAR-4): 5.7 µM (inactive)
- GI50 (OVCAR-5): 24 µM (inactive)
- GI50 (OVCAR-8): 8.28 µM (inactive)
- GI50 (PC-3): 7.93 µM (inactive)
- GI50 (RPMI-8226): 2.86 µM (inactive)
- GI50 (RXF 393): 2.33 µM (inactive)
- GI50 (SF-268): 5.38 µM (inactive)
- GI50 (SF-295): 10.4 µM (inactive)
- GI50 (SF-539): 1.56 µM (inactive)
- GI50 (SK-MEL-28): 7.26 µM (inactive)
- GI50 (SK-MEL-2): 5.43 µM (inactive)
- GI50 (SK-MEL-5): 7.78 µM (inactive)
- GI50 (SK-OV-3): 10.8 µM (inactive)
- GI50 (SN12C): 6.68 µM (inactive)
- GI50 (SNB-19): 10.1 µM (inactive)
- GI50 (SR): 2.03 µM (inactive)
- GI50 (SW-620): 3.41 µM (inactive)
- GI50 (T47D): 4.55 µM (inactive)
- GI50 (TK-10): 9.48 µM (inactive)
- GI50 (U-251): 8.3 µM (inactive)
- GI50 (UACC-257): 12.1 µM (inactive)
- GI50 (UACC-62): 10.5 µM (inactive)
- GI50 (UO-31): 11 µM (inactive)

Structure (SMILES): O=C(N/N=C1\C(=O)Nc2ccc(Br)cc21)/C(O)=C/C(=O)c1ccc(Cl)cc1
- GI50 (786-0): 37.7 µM (inactive)
- GI50 (A498): 26.8 µM (inactive)
- GI50 (A549): > 100 µM (inactive)
- GI50 (ACHN): > 100 µM (inactive)
- GI50 (BT-549): 35.5 µM (inactive)
- GI50 (CAKI-1): > 100 µM (inactive)
- GI50 (COLO 205): 86.5 µM (inactive)
- GI50 (DU-145): > 100 µM (inactive)
- GI50 (EKVX): 45.8 µM (inactive)
- GI50 (HCC 2998): 50.5 µM (inactive)
- GI50 (HCT-116): 47.1 µM (inactive)
- GI50 (HCT-15): 64.4 µM
- GI50 (HOP-62): 54.6 µM (inactive)
- GI50 (HOP-92): 43.1 µM (inactive)
- GI50 (HT-29): > 100 µM (inactive)
- GI50 (Hs-578T): 30.2 µM (inactive)
- GI50 (IGROV-1): 75.9 µM (inactive)
- GI50 (K562): 8.77 µM (inactive)
- GI50 (KM12): > 100 µM (inactive)
- GI50 (LOX IMVI): 34 µM (inactive)
- GI50 (M14): > 100 µM (inactive)
- GI50 (MCF7): 44.4 µM (inactive)
- GI50 (MDA-MB-231): 45.5 µM (inactive)
- GI50 (MDA-MB-435): 39.9 µM (inactive)
- GI50 (MDA-N): 39.3 µM (inactive)
- GI50 (MOLT-4): 0.0705 µM (active)
- GI50 (Malme-3M): > 100 µM (inactive)
- GI50 (NCI-H226): 75.2 µM (inactive)
- GI50 (NCI-H23): 71.9 µM (inactive)
- GI50 (NCI-H460): > 100 µM (inactive)
- GI50 (NCI-H522): 23.1 µM (inactive)
- GI50 (NCI/ADR-RES): > 100 µM (inactive)
- GI50 (OVCAR-3): 22.4 µM (inactive)
- GI50 (OVCAR-4): > 100 µM (inactive)
- GI50 (OVCAR-5): 97.5 µM (inactive)
- GI50 (OVCAR-8): 89.3 µM (inactive)
- GI50 (PC-3): 77.1 µM (inactive)
- GI50 (RPMI-8226): 19.4 µM (inactive)
- GI50 (RXF 393): 31.3 µM (inactive)
- GI50 (SF-268): 36.4 µM (inactive)
- GI50 (SF-295): 54 µM (inactive)
- GI50 (SF-539): 71.3 µM (inactive)
- GI50 (SK-MEL-28): 51.6 µM (inactive)
- GI50 (SK-MEL-2): 18.7 µM (inactive)
- GI50 (SK-MEL-5): 57.5 µM (inactive)
- GI50 (SK-OV-3): 64.1 µM (inactive)
- GI50 (SN12C): 67.8 µM (inactive)
- GI50 (SNB-19): 50.4 µM (inactive)
- GI50 (SNB-75): 43.8 µM (inactive)
- GI50 (SR): < 0.01 µM (active)
- GI50 (SW-620): 40.8 µM (inactive)
- GI50 (T47D): 36.6 µM (inactive)
- GI50 (TK-10): 50.4 µM (inactive)
- GI50 (U-251): 43.6 µM (inactive)
- GI50 (UACC-257): > 100 µM (inactive)
- GI50 (UACC-62): 44.3 µM (inactive)
- GI50 (UO-31): > 100 µM (inactive)
